Measured values as given in patent US10131663B2, “Chemical compounds” (AstraZeneca AB, priority 2016, dated 2018).
In brackets after ≈: the same amount, converted by molar mass. Like-named read-outs stand apart in the source and are kept apart here.

Columns and labels:
[1] = molecular target: T1, Estrogen Receptor (ERα) in MCF-7 cells (Homo sapiens (Human), UniProt P03372); assay: MCF-7 ER down-regulation assay (immuno-fluorescence); assay type: cell-based
Summary of the method: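 Compounds dispensed acoustically from DMSO stocks onto MCF-7 cells; cells fixed 20 min at room temperature, then automated immunostaining for ERα with overnight incubation at 4° C. Read-out is mean total ER fluorescence intensity normalized to cell number (intensity per cell), with curve fitting for concentration-response values.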

[2] = molecular target: recombinant human Estrogen Receptor alpha ligand binding domain (ER alpha-LBD (GST)) (Homo sapiens (Human), UniProt P03372); assay: ERα binding assay (LanthaScreen TR-FRET competition)
Sequence of recombinant human Estrogen Receptor alpha ligand binding domain (ER alpha-LBD (GST)) (P03372 307-554): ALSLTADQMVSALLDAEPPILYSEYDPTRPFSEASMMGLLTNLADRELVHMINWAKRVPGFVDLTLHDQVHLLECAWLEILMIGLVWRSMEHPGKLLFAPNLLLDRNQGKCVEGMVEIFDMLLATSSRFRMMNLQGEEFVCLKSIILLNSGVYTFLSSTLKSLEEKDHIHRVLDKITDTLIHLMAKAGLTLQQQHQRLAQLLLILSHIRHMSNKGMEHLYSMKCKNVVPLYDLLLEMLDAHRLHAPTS
Summary of the method: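 Competition binding to GST-tagged human ERα ligand-binding domain, read by LanthaScreen TR-FRET: Tb-anti-GST antibody labels the receptor and compounds displace a fluorescent tracer, lowering the signal. IC50 was taken from dose-response curve fitting.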

[3] = molecular target: T1, Estrogen Receptor (ERα) in MCF-7 cells; assay: Western blotting assay, ER down-regulation in MCF-7; assay type: cell-based; conditions: 100 nM compound, 48 h, normalised to 100 nM fulvestrant
Description: (§1) Cells were incubated with compounds (100 nM) or vehicle control (0.1% DMSO) for 48 h at 37° C., 5% CO2 before washing once with PBS and lysing with 80 μl lysis buffer (25 mM Tris/HCl, 3 mM EDTA, 3 mM EGTA, 50 mM NaF, 2 mM sodium orthovanadate, 0.27 M sucrose, 10 mM β-glycerophosphate, 5 mM sodium pyrophosphate, 0.5% TritonX-100, pH 6.8) on ice.
(§2) Samples were boiled for 10 min at 95° C. and then frozen at −20° C. until ready for use.
(§3) The blot was stained with Ponceau S (P7170, Sigma) and cut according to appropriate molecular weight markers.
(§4) Membranes were blocked for 1 hour at room temp in 5% Marvel (w/v) in phosphate-buffered saline containing 0.05% Tween™ 20 (PBS/Tween). Blots were then incubated with anti-ERα (SP1) rabbit monoclonal antibody (Thermofisher) diluted 1:1000 at 4° C. overnight (with gentle shaking) followed by several washes with PBS/Tween. […] All antibodies were made up in 5% Marvel (w/v) in PBS/Tween.
(§5) Down-regulation of the ERα receptor was normalised to the vehicle control (0% down-regulation) and the 100 nM fulvestrant control (100% down-regulation) run within the same gel.

[4] = Human plasma protein binding (equilibrium dialysis); assay type: in vitro ADME; conditions: dialysis 18 hours
Summary of the method: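 Fraction unbound (fu %) in human plasma, from LC/MSMS of plasma and buffer sides (7-point plasma calibration) after 18 h rapid equilibrium dialysis. Single determinations, with compounds pooled up to 10 per plasma pool.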

[5] = log D (shake flask, 1-octanol/aqueous buffer); assay type: physicochemical
Summary of the method: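 Distribution between 1-octanol and aqueous buffer at pH 7.4 was measured by shake flask, with compounds run in mixtures of ten. Relative concentrations in each phase were quantified by UPLC with quantitative MS. Caffeine served as a low-log D QC sample in all runs.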

[6] = Thermodynamic solubility (shake-flask); assay type: physicochemical; conditions: aqueous phosphate buffer, 25 °C, pH 7.4, aqueous buffer, thermodynamic from solid, aqueous phosphate buffer pH 7.4, 24 hours
Summary of the method: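 Shake-flask method starting from 10 mM DMSO stocks, which are dried before use. Residue equilibrated 24 h at 25° C. in aqueous phosphate buffer, pH 7.4. Dissolved fraction separated and quantified by UPLC/MS/MS, with QC samples in each run.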

[7] = molecular target: estrogen receptor (ERα) in CAMA-1 cells (Homo sapiens (Human), UniProt P03372); assay: Western blotting assay, ER down-regulation in CAMA-1; assay type: cell-based; conditions: 100 nM compound, 48 h, normalised to 100 nM fulvestrant
Sequence of estrogen receptor (ERα) in CAMA-1 cells (P03372 whole entry): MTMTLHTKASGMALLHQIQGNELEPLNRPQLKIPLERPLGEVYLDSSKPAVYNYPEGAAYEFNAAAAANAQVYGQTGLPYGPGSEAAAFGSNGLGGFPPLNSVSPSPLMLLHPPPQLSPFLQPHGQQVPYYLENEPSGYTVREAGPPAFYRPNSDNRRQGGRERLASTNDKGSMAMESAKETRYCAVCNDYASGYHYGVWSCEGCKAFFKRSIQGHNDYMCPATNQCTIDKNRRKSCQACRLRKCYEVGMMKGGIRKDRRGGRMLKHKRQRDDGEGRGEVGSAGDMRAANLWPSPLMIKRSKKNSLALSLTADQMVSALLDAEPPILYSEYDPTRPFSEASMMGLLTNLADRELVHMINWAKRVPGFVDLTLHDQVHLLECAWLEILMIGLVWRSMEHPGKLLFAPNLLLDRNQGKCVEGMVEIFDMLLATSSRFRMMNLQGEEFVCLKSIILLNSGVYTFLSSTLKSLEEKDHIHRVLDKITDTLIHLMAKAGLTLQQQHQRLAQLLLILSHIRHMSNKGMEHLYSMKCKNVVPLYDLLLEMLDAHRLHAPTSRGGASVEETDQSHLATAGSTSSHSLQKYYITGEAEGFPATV
Description: as §1, §2, §3, §4, §5

[8] = molecular target: hERG potassium channel (Homo sapiens (Human), UniProt Q12809); assay: hERG binding assay (automated patch clamp, CHO cells); assay type: cell-based; conditions: CHO cell line, Nanion Syncropatch 384PE
Sequence of hERG potassium channel (Q12809 whole entry): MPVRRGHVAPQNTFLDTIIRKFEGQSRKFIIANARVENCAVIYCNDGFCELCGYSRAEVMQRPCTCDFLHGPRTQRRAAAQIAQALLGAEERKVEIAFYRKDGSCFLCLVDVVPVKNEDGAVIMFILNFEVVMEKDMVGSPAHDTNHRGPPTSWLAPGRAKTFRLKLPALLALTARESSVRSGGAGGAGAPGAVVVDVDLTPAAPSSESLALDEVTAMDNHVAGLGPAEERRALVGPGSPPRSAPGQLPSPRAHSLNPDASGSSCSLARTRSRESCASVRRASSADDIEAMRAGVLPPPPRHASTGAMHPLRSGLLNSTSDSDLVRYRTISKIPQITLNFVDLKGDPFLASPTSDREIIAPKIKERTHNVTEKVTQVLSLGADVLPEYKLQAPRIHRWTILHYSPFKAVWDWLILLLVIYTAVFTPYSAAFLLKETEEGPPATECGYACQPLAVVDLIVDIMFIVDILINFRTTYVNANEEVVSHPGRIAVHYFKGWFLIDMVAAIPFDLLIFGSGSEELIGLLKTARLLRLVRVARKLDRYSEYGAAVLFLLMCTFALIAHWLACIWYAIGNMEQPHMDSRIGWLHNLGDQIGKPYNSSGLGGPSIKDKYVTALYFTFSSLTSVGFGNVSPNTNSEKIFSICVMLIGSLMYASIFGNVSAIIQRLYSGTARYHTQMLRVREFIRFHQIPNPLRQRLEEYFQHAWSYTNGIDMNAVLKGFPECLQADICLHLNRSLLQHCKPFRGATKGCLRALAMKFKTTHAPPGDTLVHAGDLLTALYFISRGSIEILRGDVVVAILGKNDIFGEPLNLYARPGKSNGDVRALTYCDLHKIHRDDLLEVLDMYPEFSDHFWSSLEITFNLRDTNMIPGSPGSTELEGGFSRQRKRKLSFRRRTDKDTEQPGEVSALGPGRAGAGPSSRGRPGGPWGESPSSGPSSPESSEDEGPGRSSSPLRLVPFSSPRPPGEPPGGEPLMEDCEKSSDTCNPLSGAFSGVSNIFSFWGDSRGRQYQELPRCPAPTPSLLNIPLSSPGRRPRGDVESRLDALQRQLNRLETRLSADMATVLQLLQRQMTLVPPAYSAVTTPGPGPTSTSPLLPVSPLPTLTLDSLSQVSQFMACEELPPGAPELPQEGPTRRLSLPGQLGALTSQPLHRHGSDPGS
Description: Reagent preparations include: • 1.
Cell preparations: • 1. If using cell culture; cells to be incubated at 30° C. for approximately 4-6 days prior to being used. Day of assay lift cells using accutase and re-suspend in 20 ml cell buffer to a density of 0.8 to 1e6 cells/ml. • 2. If using assay ready cryovials; rapidly thaw two cryovials at 37° C. and slowly pipette into 23 ml external solution • 3.
All compounds were acoustically dispensed in quadruplicate using a Labcyte Echo. […] Fill 384 well medium resistance 4 hole chips with 40 μl external buffer and perfuse internal buffer to the underside of plate. • 2. Dispense 20 μl of cells into each well of the chip followed by 20 μl of seal enhancer. • 3. Remove 40 μl of reagent from each well to the wash station, leaving a residual volume of 40 μl • 4. Dispense 40 μl of reference buffer with a removal step of 40 μl after 3 min, repeat this step. • 5.
hERG-mediated currents were elicited using a voltage step protocol consisting of acontinuous holding voltage of −80 mV, with a 500 ms step to 60 mV followed by a 500 ms step to −40 mV every 15 seconds. hERG current magnitude was measured automatically from the leak-subtracted traces by the Nanion software by taking the peak of the hERG “tail” current at −40 mV every 15 seconds and taking the last three of these responses for each concentration to generate the concentration-effect curve.
Calculation of results is performed using APC package within Genedata. For the routine normalization of well data with Neutral and Inhibitor control well groups as reference, GeneData Assay Analyzer uses the following equation to normalize the signal values to the desired signal range:
[formula] • x is the measured raw signal value of a well • is the median of the measured signal values for the Central Reference (Neutral) wells on a plate • is the median of the measured signal values for the Scale Reference (Inhibitor) wells on a plate • CR is the desired median normalized value for the Central Reference (Neutral) • SR is the desired median normalized value for the Scale Reference (Inhibitor)

[9] = Human Caco-2 bidirectional permeability A to B and B to A; assay type: in vitro ADME; conditions: for Papp at 2 h: Caco-2, 2 hours, pH 7.4; for efflux ratio at 2 h: Caco-2, pH 7.4
Description: An automated assay was used to determine the bidirectional permeability (efflux and uptake) of compounds in Caco-2 cells carried out over 2 hours at pH 7.4.
The efflux ratio (ER) can be determined using the following equation: ER=Papp(B-A)/Papp(A-B) Where Papp (B-A) indicates the apparent permeability coefficient in basolateral to apical direction, and Papp (A-B) indicates the apparent permeability coefficient in apical to basolateral direction. Human Caco-2 Passive Permeability A to B Papp

[10] = TR-FRET, displacement of Fluormone ES2
[11] = 1-octanol/aqueous buffer, pH 7.4, pH 7.4, 1-octanol/aqueous buffer
[12] = pH 7.4, 1-octanol/aqueous buffer

T1 sequence (P03372 whole entry): as the sequence (P03372 whole entry) above

Row | Compound | IC50 [1] [nM] | IC50 [2, 10] [nM] | MCF7 Western % ER deg vs Fv [3] [%] | Human plasma protein binding (% free) [4] [% free] | logD [5, 11] | solubility at 24 h [6] [µM] | CAMA1 Western % ER deg vs Fv [7] [%] | logD [5, 12] | IC50 [8] [nM] | IC50 [2] [nM] | Papp at 2 h [9] [×10⁻⁶ cm/s] | efflux ratio at 2 h [9]
1 | C[C@@H]1Cc2c(ccc3[nH]ncc23)[C@@H](c2c(F)cc(NC3CN(CCCF)C3)cc2F)N1CC(F)(F)F [Example 8, N-(3,5-difluoro-4-((6S,8R)-8-methyl-7-(2,2,2-trifluoroethyl)-6,7,8,9-tetrahydro-3H-pyrazolo[4,3-f]isoquinolin-6-yl)phenyl)-1-(3-fluoropropyl)azetidin-3-amine] | 0.055 | 2 | 101 | 0.99 | 4.4 | 90 (≈ 46 µg/mL) | 100 |  |  |  |  | 
2 | COc1cc(OC2CN(CCCF)C2)ccc1[C@@H]1c2ccc3[nH]ncc3c2C[C@@H](C)N1CC1(F)CC1 [Example 7, (6S,8R)-7-((1-fluorocyclopropyl)methyl)-6-(4-((1-(3-fluoropropyl)azetidin-3-yl)oxy)-2-methoxyphenyl)-8-methyl-6,7,8,9-tetrahydro-3H-pyrazolo[4,3-f]isoquinoline] | 0.4 | 8.4 | 90 | 11 |  | 470 (≈ 233 µg/mL) | 90 | 3.5 |  |  |  | 
3 | COc1cc(NC2CN(CCCF)C2)ccc1[C@@H]1c2ccc3[nH]ncc3c2C[C@@H](C)N1CC(F)(F)CO [Example 60, 2,2-difluoro-3-((6S,8R)-6-(4-((1-(3-fluoropropyl)azetidin-3-yl)amino)-2-methoxyphenyl)-8-methyl-3,6,8,9-tetrahydro-7H-pyrazolo[4,3-f]isoquinolin-7-yl)propan-1-ol] | 0.19 |  |  | 23 |  | 593 (≈ 307 µg/mL) |  | 2.5 | 11000 | 4.7 | 0.7 | 34
4 | C[C@@H]1Cc2c(ccc3[nH]ncc23)[C@@H](c2ccc(NC3CN(CCCF)C3)c(F)n2)N1CC(F)F [Example 47, 6-((6S,8R)-7-(2,2-difluoroethyl)-8-methyl-6,7,8,9-tetrahydro-3H-pyrazolo[4,3-f]isoquinolin-6-yl)-2-fluoro-N-(1-(3-fluoropropyl)azetidin-3-yl)pyridin-3-amine] | 0.41 | 1.2 |  |  | 2.6 | > 1000 |  |  |  |  | 18 | 1.1
5 | C[C@@H]1Cc2c(ccc3[nH]ncc23)[C@@H](c2ccc(OC3CN(CCCF)C3)cn2)N1CC(F)F [Example 26, (6S,8R)-7-(2,2-difluoroethyl)-6-(5-((1-(3-fluoropropyl)azetidin-3-yl)oxy)pyridin-2-yl)-8-methyl-6,7,8,9-tetrahydro-3H-pyrazolo[4,3-f]isoquinoline] | 0.52 | 6.7 | 97 | 22 | 3 | 258 (≈ 119 µg/mL) | 97 |  |  |  |  | 
6 | COc1cc(NC2CN(CCC(F)(F)F)C2)ccc1[C@@H]1c2ccc3[nH]ncc3c2C[C@@H](C)N1CC1(F)CC1 [Example 56, N-(4-((6S,8R)-7-((1-fluorocyclopropyl)methyl)-8-methyl-6,7,8,9-tetrahydro-3H-pyrazolo[4,3-f]isoquinolin-6-yl)-3-methoxyphenyl)-1-(3,3,3-trifluoropropyl)azetidin-3-amine] | 0.58 | 8.2 | 61 |  | 3.6 | 377 (≈ 200 µg/mL) | 52 |  |  |  |  | 
7 | C[C@@H]1Cc2c(ccc3[nH]ncc23)[C@@H](c2ncc(NC3CN(CCCF)C3)cc2F)N1CC(F)(F)CO [Example 31, 2,2-Difluoro-3-((6S,8R)-6-(3-fluoro-5-((1-(3-fluoropropyl)azetidin-3-yl)amino)pyridin-2-yl)-8-methyl-3,6,8,9-tetrahydro-7H-pyrazolo[4,3-f]isoquinolin-7-yl)propan-1-ol] |  |  |  | 44 | 2 | > 942 |  |  |  |  | 0.9 | 
8 | COc1cc(NC2CN(CCCF)C2)ncc1[C@@H]1c2ccc3[nH]ncc3c2C[C@@H](C)N1CC1(F)CC1 [Example 9, 5-((6S,8R)-7-((1-fluorocyclopropyl)methyl)-8-methyl-6,7,8,9-tetrahydro-3H-pyrazolo[4,3-f]isoquinolin-6-yl)-N-(1-(3-fluoropropyl)azetidin-3-yl)-4-methoxypyridin-2-amine] | > 300 | 360 | −13 | 21 | 1 | > 1000 | 25 |  |  |  |  | 
9 | COc1cc(NC2CN(CCCF)C2)c(F)cc1[C@@H]1c2ccc3[nH]ncc3c2C[C@@H](C)N1CC1(F)CC1 [Example 53, N-(2-fluoro-4-((6S,8R)-7-((1-fluorocyclopropyl)methyl)-8-methyl-6,7,8,9-tetrahydro-3H-pyrazolo[4,3-f]isoquinolin-6-yl)-5-methoxyphenyl)-1-(3-fluoropropyl)azetidin-3-amine] | 0.26 | 5.7 | 81 | 11 | 3.2 | 691 (≈ 355 µg/mL) | 46 |  |  |  |  | 
